These results are taken from paper PMC8881069, “Thio- and selenosemicarbazones as antiprotozoal agents against Trypanosoma cruzi and Trichomonas vaginalis” (Journal of Enzyme Inhibition and Medicinal Chemistry, 2022).

One data set deals with J774 cells. Briefly: Unspecific cytotoxicity assay on J774 macrophages (resazurin). The data set is classed as cell-based, mouse. As to conditions: mean ± SD, n = 3; for CC50 at 48 h: mouse. (In general: Resazurin is reduced to fluorescent resorufin, in cell work by metabolically active cells.)
In data set [1] the test system is Trypanosoma cruzi CL-B5 (DTU TcVI) epimastigotes. Briefly: CL-B5 lacZ epimastigote susceptibility assay (CPRG). The format is cell-based. The settings on record: T. cruzi CL-B5 lacZ epimastigotes, 72 h, mean ± SD, n = 3.
A further data set concerns Vero cells. Briefly: Unspecific cytotoxicity assay in Vero cells (resazurin). As to conditions: Vero cells, 24 h; brackets: 95% confidence interval. The format is cell-based, African green monkey.
For a further data set, the system named is Trichomonas vaginalis. Description: Trichomonacidal in vitro assay (resazurin). The format is cell-based. As to conditions: isolate JH31A#4, 24 h, brackets: 95% confidence interval.
Another data set concerns L929 cells. Description: Unspecific cytotoxicity assay on L929 fibroblasts (resazurin). As to conditions: mean ± SD, n = 3; for CC50 at 72 h: mouse. The data set is classed as cell-based.
The test system of data set [2] is Trypanosoma cruzi Y (DTU TcII) epimastigotes. Description: Y strain epimastigote susceptibility assay (resazurin). The data set is classed as cell-based. The settings on record: T. cruzi Y strain epimastigotes, 48 h, mean ± SD, n = 3.
In data set [3] the test system is Trypanosoma cruzi CL-B5 amastigotes. Briefly: CL-B5 lacZ intracellular amastigote susceptibility assay (CPRG). The format is cell-based. The settings on record: intracellular amastigotes in L929 cells, 7 days, mean ± SD, n = 3.

SMILES strings stand for the structures.

Usually CC50 stands for the concentration at which the toxic effect on the cells reaches its halfway point. A word on the IC50: it is the midpoint of a concentration-inhibition curve. As for `NNC(=S)Nc1cccc2ccccc12` [Compound 31], the results for the half-maximal cytotoxic concentration (CC50) with J774 cells (48 h), with Vero cells and with L929 cells (72 h) were more than 256 µM, more than 300 µM and more than 256 µM, respectively. The IC50 in data set [1] turned out to be 28.7 ± 4.61 µM; in the data set on Trichomonas vaginalis, 30.2 µM; in data set [2], 33.6 ± 5.72 µM; in data set [3], 39.7 ± 9.91 µM.

`COc1ccc(/C=N/NC(=S)Nc2ccc(OC)cc2)cc1` [Compound 43]: the CC50 at 48 h in the data set on J774 cells was more than 256 µM. Further, the IC50 in data set [1] (Trypanosoma cruzi) was found to be 26.8 ± 2.68 µM; in the data set on Trichomonas vaginalis (Trichomonas vaginalis, 24 h) it was 258 µM; in data set [2] (Trypanosoma cruzi) it was 55.6 ± 16.3 µM; in data set [3] (Trypanosoma cruzi, 168 h) it was 39 ± 14.3 µM. Further, the CC50 at 72 h in the data set with L929 cells was more than 256 µM.

Regarding `O=C(Cn1ccnc1[N+](=O)[O-])NCc1ccccc1` [Benznidazole, benznidazole, reference compound], the CC50 at 48 h with J774 cells is more than 256 µM. In addition, the IC50 was 25.3 ± 1.63 µM in data set [1] (Trypanosoma cruzi); 22.7 ± 1.82 µM in data set [2] (Trypanosoma cruzi); 0.47 ± 0.09 µM in data set [3] (Trypanosoma cruzi, 168 h). This molecule also showed a CC50 at 72 h with L929 cells of more than 256 µM.

In the data set on J774 cells, `COc1ccc(/C=N/NC(=S)Nc2cccc([N+](=O)[O-])c2)cc1` [Compound 57] gave a CC50 at 48 h of more than 256 µM. Moreover, the IC50 was 23 ± 6.33 µM in data set [1] (Trypanosoma cruzi); 51.9 µM in the data set with Trichomonas vaginalis (Trichomonas vaginalis, 24 h); more than 256 µM in data set [2] (Trypanosoma cruzi); 22.3 ± 4.2 µM in data set [3] (Trypanosoma cruzi, 168 h). The molecule further yielded a CC50 at 72 h in the data set on L929 cells of more than 256 µM.
